One data set relates to Plasmodium falciparum. Put plainly: Antimalarial activity against multi drug-resistant Plasmodium falciparum K1 infected in human erythrocytes assessed as reduction in parasite growth preincubated for 24 hrs followed by [3H]hypoxanthine addition and measured after 18 hrs by scintillation counting method. The format is functional, organism-based. Conditions: K1, Erythrocyte.

The subject of the next data set is Vero. Kind of data set: Cytotoxicity against African green monkey Vero cells assessed as reduction in cell viability by tryphan blue exclusion method. As to conditions: Chlorocebus sabaeus. It is filed as cell-based.
Data set [1] deals with Mycobacterium tuberculosis. Put plainly: Antimycobacterial activity against Mycobacterium tuberculosis H37Ra ATCC 25177. It is filed as functional, organism-based.
Data set [2] in a line: Selectivity index, ratio of IC50 for cytotoxicity against African green monkey Vero cells to IC50 for antimalarial activity against multi drug-resistant Plasmodium falciparum K1 infected in human erythrocytes. The format is toxicity, cell-based. As to conditions: read-out: Ratio IC50.

Activity calls are given as the source filed them. The calls are words filed in the database; no cut-off is given here.

For `CC(=O)O[C@@H]1C(=O)C2=C(C(=O)C[C@H]3C(C)(C)C(=O)CC[C@]23C)[C@]2(C)[C@H](O)C[C@H]([C@H](C)CC(=O)C[C@H](C)C(=O)O)[C@@]12C`, the results for the IC50 with Plasmodium falciparum and with Vero were not below 17 µM and not below 87 µM, respectively. The result in data set [1] was inactive.
Turning to `C[C@H](CC(=O)C[C@H](C)C(=O)O)[C@H]1C[C@@H](O)[C@@]2(C)C3=C(C(=O)C[C@]12C)[C@@]1(C)CCC(=O)C(C)(C)[C@@H]1CC3=O`, the IC50 with Plasmodium falciparum was not below 17 µM; with Vero, not below 87 µM. Further, the result in data set [1] was inactive.
In the same order, the values of `C[C@H](CC(=O)C[C@H](C)C(=O)O)[C@H]1C[C@@H](O)[C@@]2(C)C3=C(C(=O)C[C@]12C)[C@@]1(C)CCC(=O)[C@@](C)(CO)[C@@H]1CC3=O` are not below 17 µM, not below 87 µM and “inactive”.
Consider `C[C@H](CC(=O)C[C@H](C)C(=O)O)[C@H]1C[C@@H](O)[C@@]2(C)C3=C(C(=O)C[C@]12C)[C@@]1(C)CC[C@@H](O)C(C)(C)[C@@H]1CC3=O`, for which the figures for the IC50 with Plasmodium falciparum and with Vero were not below 17 µM and not below 87 µM, respectively. In data set [1], the outcome was inactive.
In the same order, the values of `C[C@H](CC(=O)C[C@H](C)C(=O)O)[C@H]1C[C@@H](O)[C@@]2(C)C3=C(C(=O)[C@@H](O)[C@]12C)[C@@]1(C)CCC(=O)C(C)(C)[C@@H]1CC3=O` are not below 17 µM, not below 87 µM and “inactive”.
In the case of `C[C@H](CC[C@H](OC(=O)[C@@H](C)CC(=O)C[C@@H](C)[C@H]1C[C@@H](O)[C@@]2(C)C3=C(C(=O)C[C@]12C)[C@@]1(C)CC[C@@H](O)C(C)(C)[C@@H]1CC3=O)[C@](C)(O)CO)[C@H]1CC[C@@]2(C)C3=CC[C@H]4C(C)(C)C(=O)CC[C@]4(C)C3=CC[C@]12C`, the IC50 in the data set on Plasmodium falciparum was 0.46 µM; in the data set with Vero it was 10 µM. Further, in data set [2], the selectivity ratio is 2.2. Moreover, the outcome in data set [1] was inactive.
In the same order, the values of `C[C@H](CC[C@H](OC(=O)[C@@H](C)CC(=O)C[C@@H](C)[C@H]1C[C@@H](O)[C@@]2(C)C3=C(C(=O)C[C@]12C)[C@@]1(C)CCC(=O)C(C)(C)[C@@H]1CC3=O)[C@](C)(O)CO)[C@H]1CC[C@@]2(C)C3=CC[C@H]4C(C)(C)C(=O)CC[C@]4(C)C3=CC[C@]12C` are 0.05 µM, 0.21 µM, 4.2 and “inactive”.

By IC50 is commonly meant the concentration at which inhibition is half-maximal.

Source of the values: ChEMBL document CHEMBL4699595, “Ganoweberianones A and B, Antimalarial Lanostane Dimers from Cultivated Fruiting Bodies of the Basidiomycete Ganoderma weberianum” (J Nat Prod, 2020).
